Assay results from patent publication US20110112155A1, “METHODS FOR TREATING CANCER IN PATIENTS HAVING BREAST CANCER RESISTANCE PROTEIN OVEREXPRESSION” (Bristol-Myers Squibb Company, priority 2008, published 2011).
Read-outs that look alike come from different tables or passages of the source.

How the values were obtained:
[1] = system: H1155 lung tumor xenograft overexpressing TUBB3; experiment: In vivo efficacy in TUBB3 overexpressing H1155 lung tumor xenograft; parameters: species or system human; conditions: H1155 xenograft in nude mice, at maximum tolerated dose; activity = LCK>=1
Description: (§1) Cancer cell lines overexpressing TUBB3 were evaluated in vivo in mice for sensitivity to ixabepilone, docetaxel and vinorelbine. These include DU4475 and PAT21 breast, as well as H1155 and LX-1 lung cancer lines. BCRP overexpressing HEK-293 cell line was studied in vitro for sensitivity to ixabepilone, paclitaxel and mitoxantrone.
(§2) In vivo efficacy of ixabepilone was evaluated in TUBB3 overexpressing human breast (DU4475 and PAT21) and lung (H1155 and LX-1) tumor xenograft models • Tumor response was determined by measurement of tumors by caliper twice a week • Tumor weights were estimated using the formula
(§3) Tumor weight=(length×width2)/2 • Tumor response endpoint was expressed in terms of log cell kill (LCK) expressed as
(§4) LCK=(T−C)÷(3.32×TVDT) • T−C, the difference in the time (days) required for the treated tumors (T) to reach a predetermined target size compared with those of the control group (C)
(§5) Tumor volume doubling time=TVDT: Median time (days) for control tumors to reach target size−Median time (days) for control tumors to reach half the target size • Activity was defined as achievement of LCK≧1 • MTD—the dose level immediately above which excessive toxicity (i.e., more then one death) occurred • Statistical evaluations were performed using Gehan's generalized Wilcoxon test

[2] = system: Pat-21 breast tumor xenograft overexpressing TUBB3; experiment: In vivo efficacy in TUBB3 overexpressing PAT21 breast tumor xenograft; parameters: species or system human; conditions: Pat-21 xenograft in nude mice, at maximum tolerated dose; activity = LCK>=1
Description: as §1, §2, §3, §4, §5

[3] = system: 4 xenografts overexpressing TUBB3 (DU4475, PAT21, H1155, LX-1); experiment: In vivo efficacy across the 4 human tumor xenografts overexpressing TUBB3; conditions: range across 4 TUBB3 overexpressing xenografts in nude mice, at MTD
Description: as §1, §2, §3, §4, §5

[4] = system: DU4475 breast tumor xenograft overexpressing TUBB3; experiment: In vivo efficacy in TUBB3 overexpressing DU4475 breast tumor xenograft; parameters: species or system human; conditions: DU4475 xenograft in nude mice, at maximum tolerated dose; activity = LCK>=1
Description: as §1, §2, §3, §4, §5

[5] = system: LX-1 lung tumor xenograft overexpressing TUBB3; experiment: In vivo efficacy in TUBB3 overexpressing LX-1 lung tumor xenograft; parameters: species or system human; conditions: LX-1 xenograft in nude mice, at maximum tolerated dose; activity = LCK>=1
Description: as §1, §2, §3, §4, §5

[6] = system: paclitaxel-sensitive (A2780, HCT116, LS174T) and paclitaxel-resistant (HCT116/VM46, Pat-7, A2780Tax, Pat-21) human tumor models; experiment: Preclinical pharmacology studies of antitumor activity in human tumor models; format: in vivo
[7] = system: human lung carcinoma cell line, H441; experiment: BCRP-overexpression dependent resistance in H441 cells; format: cell-based; conditions: FIG. 8
[8] = system: BCRP overexpressing HEK293/BCRP cell line; experiment: Cell growth assay in BCRP overexpressing HEK293 cells; format: cell-based
Description: as §1
(§6) Compounds and reagents. Ixabepilone, docetaxel and mitoxantrone were solubilized in 100% DMSO at 10 mg/ml for in vitro studies.
(§7) Cell culture: HEK and HEK/BCRP cells were maintained in RPMI-1640 (Gibco) supplemented with 10% heat-inactivated fetal bovine serum and 25 mM HEPES at 37° C./5% CO2.
(§8) Cell growth assays. Cell growth assays were conducted in 6-well culture plates. Cells were plated at a density of 4×10^4 cells/well overnight. Compounds were then added (total DMSO content not exceeding 0.1%). Cell growth was determined by the direct counting of cell number, following trypsinization, using a Coulter Channelyzer.

BCRP = experiment: as above; format: cell-based; conditions: human, HEK293 cells overexpressing BCRP (HEK293/BCRP); HEK293/BCRP cells, cell growth by cell counting
Description: as §1, §6, §7, §8

[9] = system: BCRP overexpressing cells; experiment: Detection of BCRP overexpressing cells by Hoescht 33342 dye and flow cytometry; format: cell-based; conditions: flow cytometry, FIG. 7
Excerpt: Determination of BCRP Expression by Flow Cytometry.
Cells were acquired using CellQuest Pro on a FACSCalibur (BD) and analyzed using FlowJo software.

[10] = HEK293/BCRP in comparison with the vector-transfected control line

SMILES: CC(=O)O[C@@]12CO[C@@H]1C[C@H](O)[C@@]1(C)C(=O)[C@H](O)C3=C(C)[C@@H](OC(=O)[C@H](O)[C@@H](NC(=O)OC(C)(C)C)c4ccccc4)C[C@@](O)([C@@H](OC(=O)c4ccccc4)[C@H]21)C3(C)C [Docetaxel, docetaxel]
- Antitumor Efficacy (LCK) [1]: 0.2 LCK
- Antitumor Efficacy (LCK) [2]: 0.3 LCK
- antitumor efficacy, range over the 4 xenografts [3]: 0.2-0.9 LCK
- Antitumor Efficacy (LCK) [4]: 0.9 LCK
- Antitumor Efficacy (LCK) [5]: 0.5 LCK

SMILES: C/C(=C\c1csc(C)n1)[C@@H]1C[C@@H]2O[C@]2(C)CCC[C@H](C)[C@H](O)[C@@H](C)C(=O)C(C)(C)[C@@H](O)CC(=O)N1 [Ixabepilone, (1S,3S,7S,10R,11S,12S,16R)-7,11-dihydroxy-8,8,10,12,16-pentamethyl-3-[(1E)-1-methyl-2-(2-methyl-4-thiazolyl)ethenyl]-17-oxa-4-azabicyclo[14.1.0]heptadecane-5,9-dione]
- Antitumor Efficacy (LCK) [1]: 4.2 LCK
- oral efficacy ([6]; oral administration, comparable to parenteral administration): orally efficacious
- antitumor activity ([6]; paclitaxel-sensitive and paclitaxel-resistant human colon, ovarian and breast tumor models): very impressive and broad spectrum of antitumor activity
- Antitumor Efficacy (LCK) [2]: 1.6 LCK
- ability to overcome BCRP-overexpression dependent resistance to taxanes [7]: increased ability
- resistance factor [8]: 1.9 fold
- IC50 (BCRP): 4.1 nM
- Antitumor Efficacy (LCK) [4]: 2.6 LCK
- Antitumor Efficacy (LCK) [5]: 2.6 LCK

SMILES: CCC1=C[C@@H]2CN(C1)Cc1c([nH]c3ccccc13)[C@@](C(=O)OC)(c1cc3c(cc1OC)N(C)[C@H]1[C@@](O)(C(=O)OC)[C@H](OC(C)=O)[C@]4(CC)C=CCN5CC[C@]31[C@@H]54)C2 [Vinorelbine, vinorelbine]
- Antitumor Efficacy (LCK) [1]: 0.1 LCK
- Antitumor Efficacy (LCK) [2]: 0.3 LCK
- antitumor efficacy, range over the 4 xenografts [3]: 0.1-0.3 LCK
- Antitumor Efficacy (LCK) [4]: 0.2 LCK
- Antitumor Efficacy (LCK) [5]: 0.1 LCK

SMILES: COc1ccc2c3c([nH]c2c1)[C@H](C=C(C)C)N1C(=O)[C@@H]2CCCN2C(=O)[C@@H]1C3 [fumitremorgin C]
- effect on BCRP overexpressing cells detected with Hoescht 33342 dye [9]: abolition of BCRP overexpressing cells
- reversal of BCRP-mediated resistance to paclitaxel and mitoxantrone ([8]; HEK293/BCRP cells): reversed

SMILES: O=C1c2c(O)ccc(O)c2C(=O)c2c(NCCNCCO)ccc(NCCNCCO)c21 [mitoxantrone]
- resistance factor [8, 10]: 4.1 fold
- IC50 (BCRP): 26.4 nM

SMILES: CC(=O)O[C@H]1C(=O)[C@@]2(C)[C@H]([C@H](OC(=O)c3ccccc3)[C@]3(O)C[C@H](OC(=O)[C@H](O)[C@@H](NC(=O)c4ccccc4)c4ccccc4)C(C)=C1C3(C)C)[C@]1(OC(C)=O)CO[C@@H]1C[C@@H]2O [paclitaxel]
- resistance factor [8, 10]: 9.8 fold
- IC50 (BCRP): 8.7 nM
